According to a melting point compilation (Tetko et al.; mined from patent text by program, amines drawn as free bases though some values may be those of a salt):

Row | SMILES | melting point
1 | CCCC(=NO)c1ccc(C(=O)O)cn1 | 203 to 205 °C
2 | O=C(NCCN1CCC(n2c(=O)[nH]c3ccccc32)CC1)c1ccco1 | 229 °C
3 | O=c1nc(-c2ccc(Cl)s2)cc(C(F)(F)F)[nH]1 | 191 °C
4 | O=C(O)c1c[nH]c(=S)n1C1CCc2cc(F)cc(F)c2C1 (stereo unspecified) | 207 to 208 °C
5 | Cc1ccc(F)cc1C(=O)Nc1ccc(C(=O)N2CCCCc3sccc32)cn1 | 178 to 180 °C
6 | CCOC(=O)CC1CCCc2cc(C#N)ccc21 (stereo unspecified) | 45 to 47 °C
7 | CCCOc1c(OC)cc(C(=O)O)cc1[N+](=O)[O-] | 121 to 123 °C
8 | COc1ccc(OCCCN2CCN(c3ccc(Cl)nn3)CC2)cc1 | 123 °C
9 | Cc1c(-c2ncc([N+](=O)[O-])n2C)cnn1-c1ccccc1 | 194 °C
10 | CCOC(=O)CCCC1CCN(CCOC(c2ccccc2)c2ccc(Cl)cc2)CC1 (stereo unspecified) | 117 to 119 °C
11 | CCOC(=O)c1ncn(-c2nn(C)cc2Cl)c1S(N)(=O)=O | 167 to 168 °C
12 | N#Cc1nn(-c2c(Cl)cc(C(F)(F)F)cc2Cl)c(N)c1-c1cccc([N+](=O)[O-])c1 | 212 to 214 °C
13 | CCCCc1nn2c(C)cccc2c1Cc1ccc(Br)cc1 | 54 °C
14 | COc1cc(N)c(Cl)cc1C(=O)NCC1CCN(CCCC(=O)c2ccc(O)cc2)CC1 | 199 to 201 °C
15 | COC(=O)c1cc(-c2ccc(OC)cc2)nn(CCC#N)c1=O | 141 to 143 °C
16 | CN1CCN(c2ccnc3sc(C(N)=O)c(N)c23)CC1 | 260 to 263 °C
17 | CCCCCCCCCCCCCCCCCCOc1cc(OCCOCCOCCOCC)cc(N(CC(=O)O)CC(=O)O)c1 | 76 to 78 °C
18 | O=c1c2c(n(-c3ccccc3)c3ncccc13)SCC2 | 260 to 261 °C
19 | CCCCCS(=O)(=O)NC(=O)c1ccc2[nH]c(C)c(Cc3ccc(SC(C)(C)C)cc3Cl)c2c1 | 185 to 188 °C
20 | C[C@H](NC(=O)c1c[nH]c2ncc(-c3cn(-c4cccc(C(F)(F)F)c4)cn3)nc12)C(C)(C)C | 332 to 333 °C
21 | O=C1NC(=O)C(c2c3n(c4ccccc24)CCC(CO)C3)=C1c1cccc(C(F)(F)F)c1 (stereo unspecified) | 77 to 79 °C
22 | Cc1ccc(-c2cc(N3CCCCC3)c(C#N)c3c2-c2ccccc2C3=O)cc1 | 230 to 232 °C
23 | COc1cc(OC)cc(C(NCC(=O)Nc2c(C(C)C)cccc2C(C)C)c2ccccc2C)c1 (stereo unspecified) | 138 to 139 °C
24 | C=CCCOc1cc2c(c(Cl)c1Cl)C(=O)C(C)(C1CCCC1)C2 (stereo unspecified) | 63 to 65 °C

Row | SMILES | melting point
25 | CCOc1ccc2c(c1)C(Cl)(c1ccccc1Cl)C(=O)N2 (stereo unspecified) | 128 to 132 °C
26 | CC(C)n1nc(-c2sc(NC(=O)CN3CCCCC3)nc2-c2ccccc2)ccc1=O | 189 to 190 °C
27 | O=C(NCCO)c1cccc(-c2cccc3cc(Cc4cc(F)cc(Cl)c4)sc23)n1 | 139 to 140 °C
28 | O=C(O)c1ccc(OCCNC(=O)C2Cc3ccccc3N2S(=O)(=O)c2ccc(-c3ccc(F)cc3)cc2)cc1F (stereo unspecified) | 109 to 113 °C
29 | Cc1ccc(-n2nc(C(F)(F)F)cc2-c2ccc(S(C)(=O)=O)cc2)cc1F | 158 to 160 °C
30 | CC1Cc2ccc(Br)cc2C(c2ccc(N)cc2)=NN1C(=O)C(F)(F)F (stereo unspecified) | 93 to 96 °C
31 | COC(=O)CCC(=O)c1ccc(-c2ccc(Cl)s2)cc1 | 117 to 118 °C
32 | CC(C)c1cccc(C(C)C)c1NC(=O)Nc1c(-c2cccc(O)c2)c2cccnc2n(C)c1=O | 152 to 155 °C
33 | O=C(Oc1cc([N+](=O)[O-])c(F)cc1Cl)Oc1cc([N+](=O)[O-])c(F)cc1Cl | 165 to 166 °C
34 | O=C(O)CCCCCCCCNS(=O)(=O)c1cccc(Cl)c1 | 112 to 113 °C
35 | CCOC(=O)C(=O)CC(=O)c1cn(Cc2ccc(F)cc2)c2cc(F)ccc2c1=O | 151 to 152 °C
36 | Fc1ccccc1-c1cc2ccccc2[nH]1 | 97 to 98 °C
37 | CCOC(=O)c1cnn2c1c(=S)[nH]c1ccccc12 | 270 to 272 °C
38 | O=C1c2c(O)ccc(O)c2C(=O)c2c(NCCNCCO)ccc(O)c21 | 196 to 198 °C
39 | COC(=O)c1cnc(Cl)c(C)n1 | 49 to 50 °C
40 | COc1ccc2c(c1)-c1c(cc(C)n1C[C@@H](C)O)C2 | 110 °C
41 | CC(C)(C)OC(=O)CS(=O)(=O)c1cccc(-c2nc(=O)c3ccccc3s2)n1 | 159 to 160 °C
42 | CC(=O)c1ccc(O)c(CC#N)c1 | 154 to 168 °C
43 | Clc1ccc(OC2CC3CCC(C2)N3Cc2nccs2)cc1Cl (stereo unspecified) | 123 to 124 °C
44 | CCCOC(=O)C1=C(C)NC(C=O)=C(C(=O)OC)C1c1ccccc1C#N (stereo unspecified) | 138 to 141 °C
45 | CCOC(=O)CSc1nc(Cl)cc(NCCc2ccc(Cl)cc2)n1 | 68 to 70 °C
46 | CC#CCc1c(C)nc2cc(C)nn2c1N | 215 to 219 °C
47 | Cc1ccccc1Nc1nc(Cl)c2sccc2n1 | 87 to 89 °C
48 | Cc1c(O)c(=O)ccn1Cc1ccccc1 | 205 to 207 °C

Row | SMILES | melting point
49 | CCCCCCCN(CCCCCSc1nc2ncccc2[nH]1)C(=O)NC(C)C | 101 to 102 °C
50 | CCCC(O)C1(CCC)c2ccccc2-c2ccccc21 (stereo unspecified) | 83 to 85 °C
51 | Cc1cc(C)nc(NC(=O)NS(=O)(=O)c2ccccc2-c2ccccc2)n1 | 78 °C
52 | N#Cc1c(Cl)cc(Cl)cc1[N+](=O)[O-] | 102 to 103 °C
53 | CCCCn1c(-c2ccc(Cl)c(S(=O)(=O)N(C)C)c2)csc1=Nc1ccccc1C | 104 °C
54 | CC(C)OC(=O)N1CCC(c2nc3cc(-c4ccc(C(N)=O)cn4)ccc3o2)CC1 | 227 to 230 °C
55 | COC(=O)C1=Cc2cccc(C=O)c2OCC1 | 122 to 124 °C
56 | O=C(NCc1ccc(Br)cc1)c1cn(N2CCOCC2)c2ccc(CN3CCOCC3)cc2c1=O | 200 to 202 °C
57 | CCOC(=O)COc1cc(C)nc2c(OCc3c(Cl)ccc(N(C)C(=O)CNC(=O)C=Cc4ccc(C(=O)NC)cc4)c3Cl)cccc12 | 134 to 147 °C
58 | CCc1oc2ccccc2c1C(=O)c1cc(-c2ccccc2)c(O)c(-c2ccccc2)c1 | 142 to 143 °C
59 | O=C(c1ccccc1NCc1ccncc1)[NH+]([O-])c1cc2ccccc2cn1 (stereo unspecified) | 212 °C
60 | Cc1cc(-n2ncnn2)cc2ccc(=O)[nH]c12 | 264 to 266 °C
61 | O=C(O)c1cn2c3c(c(Cl)cc(Cl)c3c1=O)CCC2 | 300 to 304 °C
62 | O=[N+]([O-])c1ccc(Cl)c(C=NNc2c(Cl)cc(Cl)cc2Cl)c1 | 113 to 116 °C
63 | CCOC(=O)/C(=N\OC1CCCC1)c1csc(N)n1 | 136 to 138 °C
64 | CCOC(=O)Cc1ccc(-c2nc(COc3ccc(CCl)cc3OC)c(C)o2)cc1 | 121 to 122 °C
65 | CCCCSc1c2c(=O)n(C)c(=O)n(CC(C)C)c2cn1Cc1cccc2ccccc12 | 92 to 94 °C
66 | N#Cc1cc(NC(=O)c2ccccc2F)ccc1-n1nc(C(F)(F)F)cc1C(F)(F)F | 132 to 134 °C
67 | O=c1c2c(c1=O)N(CCP(=O)(O)O)CC(O)CN2 (stereo unspecified) | 215 to 218 °C
68 | CCOC(=O)C1OC1C(=O)NCc1ccccc1 (stereo unspecified) | 90 to 91 °C
69 | CN(c1c(Cl)ccc2cc(C(=O)O)[nH]c12)S(=O)(=O)c1cccs1 | 286 to 288 °C
70 | O=C(Nc1cccc(Cl)c1)ONC1=Nc2ccc(Cl)cc2C(c2ccccc2)=NC1 | 158 to 159 °C
71 | COc1ccc(C)cc1NC(=O)Nc1ccc2c(c1)C=CN(C(=O)Nc1c(C)cccc1Cl)C2 | 216 to 218 °C
